Measurements reported in the supplement of paper PMC10307832.

Compound: CC(C)CCN1c2nc(Nc3cc(F)c(O)c(F)c3)ncc2N(C)C(=O)C1C [BI-D1870]
Experiment: relative viability (nuclei count vs DMSO), 5 days (fraction); higher = more cells survive
Settings: 0.04 µM
Outline: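 Only plates meeting two conditions passed: control CV below 25% and at least one doubling. Lung cancer cell lines, kept overnight at 37 °C in 1536-well plates, were pinned with five library-drug doses (not always all listed) √10 apart on vehicle-anchored plates and grown 5 days without medium change. A one-step fix, permeabilisation and Hoechst stain preceded 4× imaging and MetaXpress nuclear counting. Viability equals treated-well nuclei divided by vehicle-well nuclei, as the median over plates.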

Cell Line	relative viability
201T	0.989
NCI-H1915	1.09
HCC-827	1.05
LXF-289	1.01
NCI-H23	1.21
NCI-H1299	1.05
NCI-H647	1.07
CAL-12T	1.14
NCI-H1651	0.997
EPLC-272H	1.12
NCI-H2228	0.999
NCI-H1792	1
NCI-H1355	1.06
NCI-H3122	1.03
NCI-H1437	1.02
NCI-H1755	1.03
NCI-H2023	1
HCC-15	1.02
NCI-H1793	1.06
PC-14	1.09
EKVX	1.06
LC-2-ad	1.08
NCI-H1563	0.991
NCI-H1944	1.12
NCI-H1975	1.15
RERF-LC-KJ	1.01
ABC-1	0.949
NCI-H358	1.07
NCI-H650	1.02
PC-3 [JPC-3]	1.05

Same assay, conditions: 0.1265 µM

Cell Line	relative viability
201T	0.962
NCI-H1915	0.921
HCC-827	1.05
LXF-289	0.946
NCI-H23	0.874
NCI-H1299	1.01
NCI-H647	0.918
CAL-12T	0.87
NCI-H1651	0.911
EPLC-272H	0.802
NCI-H2228	0.82
NCI-H1792	0.981
NCI-H1355	0.917
NCI-H3122	0.927
NCI-H1437	0.906
NCI-H1755	1.01
NCI-H2023	0.846
HCC-15	0.935
NCI-H1793	0.803
PC-14	0.943
EKVX	0.94
LC-2-ad	0.957
NCI-H1563	1.01
NCI-H1944	0.919
NCI-H1975	0.904
RERF-LC-KJ	0.908
ABC-1	0.887
NCI-H358	0.834
NCI-H650	0.789
PC-3 [JPC-3]	1.02

Same assay, conditions: 0.4 µM

Cell Line	relative viability
201T	0.975
NCI-H1915	0.969
HCC-827	1.04
LXF-289	0.973
NCI-H23	0.868
NCI-H1299	1.04
NCI-H647	1.05
CAL-12T	0.946
NCI-H1651	0.945
EPLC-272H	0.926
NCI-H2228	0.845
NCI-H1792	0.828
NCI-H1355	0.958
NCI-H3122	0.951
NCI-H1437	0.992
NCI-H1755	1.03
NCI-H2023	0.88
HCC-15	0.93
NCI-H1793	0.757
PC-14	0.97
EKVX	0.889
LC-2-ad	1.02
NCI-H1563	0.933
NCI-H1944	0.907
NCI-H1975	0.99
RERF-LC-KJ	0.954
ABC-1	0.92
NCI-H358	0.803
NCI-H650	1.08
PC-3 [JPC-3]	0.962

Same assay, conditions: 1.265 µM

Cell Line	relative viability
201T	0.985
NCI-H1915	0.988
HCC-827	1.03
LXF-289	1.02
NCI-H23	0.939
NCI-H1299	1.04
NCI-H647	1.04
CAL-12T	0.97
NCI-H1651	1.04
EPLC-272H	0.821
NCI-H2228	1.21
NCI-H1792	1.15
NCI-H1355	1.11
NCI-H3122	1.02
NCI-H1437	1.04
NCI-H1755	1.07
NCI-H2023	0.988
HCC-15	1.02
NCI-H1793	1.19
PC-14	1.08
EKVX	1.11
LC-2-ad	1.01
NCI-H1563	0.972
NCI-H1944	1.03
NCI-H1975	0.914
RERF-LC-KJ	1.02
ABC-1	1.01
NCI-H358	0.916
NCI-H650	0.906
PC-3 [JPC-3]	1.1

Same assay, conditions: 4 µM

Cell Line	relative viability
201T	0.959
NCI-H1915	0.763
HCC-827	1.01
LXF-289	0.846
NCI-H23	0.575
NCI-H1299	0.863
NCI-H647	0.889
CAL-12T	0.682
NCI-H1651	0.914
EPLC-272H	0.627
NCI-H2228	0.702
NCI-H1792	0.613
NCI-H1355	0.861
NCI-H3122	0.903
NCI-H1437	0.9
NCI-H1755	1.01
NCI-H2023	0.701
HCC-15	0.725
NCI-H1793	0.801
PC-14	0.767
EKVX	0.931
LC-2-ad	0.868
NCI-H1563	0.994
NCI-H1944	0.941
NCI-H1975	0.851
RERF-LC-KJ	0.814
ABC-1	0.761
